Measured values published in patent US20190374533A1, “COMPOUNDS AND METHODS FOR INHIBITING NHE-MEDIATED ANTIPORT IN THE TREATMENT OF DISORDERS ASSOCIATED WITH FLUID RETENTION OR SALT OVERLOAD AND GASTROINTESTINAL TRACT DISORDERS” (Ardelyx, Inc., priority 2008, published 2019).
Read-outs that look alike come from different tables or passages of the source.

What was measured:
[1] = Determination of compound Cmax and AUC; format: in vivo; conditions: rat; Sprague-Dawley rats, oral gavage, serum 0.5-4 h; actual oral dose (mg/kg) given
Method: Sprague-Dawley rats were orally gavaged with test article (2.5 mg/kg) and serum was collected at 0.5, 1, 2 and 4 h. Serum samples were treated with acetonitrile, precipitated proteins removed by centrifugation and supernatants analyzed by LC/MS/MS and compared against a standard curve to determine compound concentration. All compounds were orally dosed at the dosage shown, and pharmacokinetic parameters determined as described in the text.

[2] = target: T1, rat NHE-3 (Rattus norvegicus, UniProt P26433); assay: Cell-based assay of NHE-3 activity (Pharmacological Test Example 1); conditions: for IC50: read-out: rat NHE-3 Average pIC50 (converted)
T1 construct: expressed in transfected cells; host or cells: Opossum kidney (OK) cells (ATCC), electroporated
Method: Rat NHE-3-mediated Na^+-dependent H^+ antiport was measured using a modification of the pH sensitive dye method originally reported by Tsien (Proc. Natl. Acad. Sci. USA. (1984) 81(23): 7436-7440). Opossum kidney (OK) cells were obtained from the ATCC and propagated per their instructions. The rat NHE-3 gene was introduced into OK cells via electroporation, seeded into 96 well plates and grown overnight. Medium was aspirated from the wells, cells were washed twice with NaCl-HEPES buffer (100 mM NaCl, 50 mM HEPES, 10 mM glucose, 5 mM KCl, 2 mM CaCl2, 1 mM MgCl2, pH 7.4), then incubated for 30 min at room temperature with NH4Cl-HEPES buffer (20 mM NH4Cl, 80 mM NaCl, 50 mM HEPES, 5 mM KCl, 2 mM CaCl2), 1 mM MgCl2, pH 7.4) containing 5 uM BCECF-AM (Invitrogen). Cells were washed twice with Ammonium free, Nat-free HEPES (100 mM choline, 50 mM HEPES, 10 mM glucose, 5 mM KCl, 2 mM CaCl2), 1 mM MgCl2, pH 7.4) and incubated in the same buffer for 10 minutes at room temperature to lower intracellular pH. […] Initial rates were plotted as the average 3-6 replicates, and pIC50 values were estimated using GraphPad Prism.

[3] = OK cells expressing rat NHE-3, 0-30 uM test compound, 5 uM EIPA

T1 sequence (P26433 29-831): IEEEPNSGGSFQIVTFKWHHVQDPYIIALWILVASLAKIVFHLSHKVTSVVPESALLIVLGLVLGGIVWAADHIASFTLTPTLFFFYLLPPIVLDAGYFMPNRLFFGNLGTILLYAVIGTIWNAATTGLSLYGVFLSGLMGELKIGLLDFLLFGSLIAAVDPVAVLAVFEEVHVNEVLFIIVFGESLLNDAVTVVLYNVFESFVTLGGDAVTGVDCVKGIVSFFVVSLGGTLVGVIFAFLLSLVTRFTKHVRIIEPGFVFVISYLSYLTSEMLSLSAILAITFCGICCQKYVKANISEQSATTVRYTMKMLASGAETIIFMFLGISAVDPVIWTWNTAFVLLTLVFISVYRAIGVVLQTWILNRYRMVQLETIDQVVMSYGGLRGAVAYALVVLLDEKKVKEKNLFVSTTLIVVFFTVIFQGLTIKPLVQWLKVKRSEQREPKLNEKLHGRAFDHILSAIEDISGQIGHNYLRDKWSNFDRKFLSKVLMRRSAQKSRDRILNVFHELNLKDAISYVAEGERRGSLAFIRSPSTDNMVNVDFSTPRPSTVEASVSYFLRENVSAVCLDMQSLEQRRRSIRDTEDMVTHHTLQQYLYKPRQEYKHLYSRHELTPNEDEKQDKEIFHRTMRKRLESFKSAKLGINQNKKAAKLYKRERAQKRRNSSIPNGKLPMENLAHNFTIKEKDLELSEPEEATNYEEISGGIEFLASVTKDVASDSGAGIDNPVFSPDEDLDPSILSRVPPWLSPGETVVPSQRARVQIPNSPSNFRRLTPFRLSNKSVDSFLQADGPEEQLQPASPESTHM

| Compound | AUC [1] [ng·h/mL] | Cmax [1] [ng/mL] | IC50 [2, 3] [nM] | rat NHE-3 Average pIC50 [2, 3] | rat NHE-3 Average pIC50 [2] |
| --- | --- | --- | --- | --- | --- |
| CN1Cc2c(Cl)cc(Cl)cc2C(c2ccc(S(=O)(=O)NCC(=O)NCC(=O)NCC(=O)NCCCCNC(=O)CNC(=O)CNC(=O)CNS(=O)(=O)c3ccc(C4CN(C)Cc5c(Cl)cc(Cl)cc54)cc3)cc2)C1 (centres unmarked) [Example 204, N,N′-(butane-1,4-diyl)bis(2-(2-(2-(4-(6,8-dichloro-2-methyl-1,2,3,4-tetrahydroisoquinolin-4-yl)phenylsulfonamido)acetamido)acetamido)acetamide)] | < 2 | < 2 |  | >7 |  |
| CN1Cc2c(Cl)cc(Cl)cc2C(c2ccc(S(=O)(=O)NCCOCCOCCNC(=O)C(O)C(O)C(=O)NCCOCCOCCNS(=O)(=O)c3ccc(C4CN(C)Cc5c(Cl)cc(Cl)cc54)cc3)cc2)C1 (centres unmarked) [Example 205, N1,N4-bis(2-(2-(2-(4-(6,8-dichloro-2-methyl-1,2,3,4-tetrahydroisoquinolin-4-yl)phenylsulfonamido)ethoxy)ethoxy)ethyl)-2,3-dihydroxysuccinamide] | < 2 | < 2 |  | >7 |  |
| CN1Cc2c(Cl)cc(Cl)cc2C(c2cccc(S(=O)(=O)NCCOCCOCCOCCNC(=O)NCCCCNC(=O)NCCOCCOCCOCCNS(=O)(=O)c3cccc(C4CN(C)Cc5c(Cl)cc(Cl)cc54)c3)c2)C1 (centres unmarked) [Example 208, N,N′-(13,20-dioxo-3,6,9,24,27,30-hexaoxa-12,14,19,21-tetraazadotriacontane-1,32-diyl)bis(3-(6,8-dichloro-2-methyl-1,2,3,4-tetrahydroisoquinolin-4-yl)benzenesulfonamide)] | < 5 | < 5 |  | >7 |  |
| C/C(=C\c1cc(F)c(Oc2ccc(S(=O)(=O)NCCOCCOCCOCCOCCOCCOCCNC(=O)[C@H](O)[C@@H](O)C(=O)NCCOCCOCCOCCOCCOCCOCCNS(=O)(=O)c3ccc(Oc4c(F)cc(/C=C(\C)C(=O)N=C(N)N)cc4F)cc3)cc2)c(F)c1)C(=O)N=C(N)N [Example 210, (2R,3R)—N1,N4-bis(20-(4-(4-((E)-3-(diaminomethyleneamino)-2-methyl-3-oxoprop-1-enyl)-2,6-difluorophenoxy)phenylsulfonamido)-3,6,9,12,15,18-hexaoxaicosyl)-2,3-dihydroxysuccinamide] |  |  |  | 6 to 7 |  |
| C/C(=C\c1cc(F)c(Oc2ccc(S(=O)(=O)NCCOCCOCCOCCOCCOCCOCCN)cc2)c(F)c1)C(=O)N=C(N)N [Example 211, (E)-3-(4-(4-(N-(20-amino-3,6,9,12,15,18-hexaoxaicosyl)sulfamoyl)phenoxy)-3,5-difluorophenyl)-N-(diaminomethylene)-2-methylacrylamide] | < 3 | < 2.3 |  | 6 to 7 |  |
| C/C(=C\c1cc(F)c(Oc2ccc(S(=O)(=O)NCCOCCOCCOCCNC(=O)[C@H](O)[C@@H](O)C(=O)NCCOCCOCCOCCNS(=O)(=O)c3ccc(Oc4c(F)cc(/C=C(\C)C(=O)N=C(N)N)cc4F)cc3)cc2)c(F)c1)C(=O)N=C(N)N [Example 212, (2R,3R)—N1,N4-bis(2-(2-(2-(2-(4-(4-((E)-3-(diaminomethyleneamino)-2-methyl-3-oxoprop-1-enyl)-2,6-difluorophenoxy)phenylsulfonamido)ethoxy)ethoxy)ethoxy)ethyl)-2,3-dihydroxysuccinamide] | < 4.4 | < 2.7 | < 100 |  |  |
| CN1Cc2c(Cl)cc(Cl)cc2C(c2cccc(S(=O)(=O)NCCOCCOCCOCCNC(=O)CN(CC(=O)NCCOCCOCCOCCNS(=O)(=O)c3cccc(C4CN(C)Cc5c(Cl)cc(Cl)cc54)c3)CC(=O)NCCOCCOCCOCCNS(=O)(=O)c3cccc(C4CN(C)Cc5c(Cl)cc(Cl)cc54)c3)c2)C1 (centres unmarked) [Example 213, 2,2′,2″-nitrilotris(N-(2-(2-(2-(2-(3-(6,8-dichloro-2-methyl-1,2,3,4-tetrahydroisoquinolin-4-yl)phenylsulfonamido)ethoxy)ethoxy)ethoxy)ethyl)acetamide)] | < 5 | < 5 |  | 6 to 7 |  |
| CN1Cc2c(Cl)cc(Cl)cc2C(c2cccc(S(=O)(=O)NCCOCCOCCOCCNC(=O)c3ccccc3C(=O)NCCOCCOCCOCCNS(=O)(=O)c3cccc(C4CN(C)Cc5c(Cl)cc(Cl)cc54)c3)c2)C1 (centres unmarked) [Example 230, N1,N2-bis(2-(2-(2-(2-(3-(6,8-dichloro-2-methyl-1,2,3,4-tetrahydroisoquinolin-4-yl)phenylsulfonamido)ethoxy)ethoxy)ethoxy)-ethyl)phthalamide] | < 5 | < 5 |  |  | >7 |
| CN1Cc2c(Cl)cc(Cl)cc2C(c2ccc(S(=O)(=O)NCCOCCOCCNC(=O)c3ccc(C(=O)NCCOCCOCCNS(=O)(=O)c4ccc(C5CN(C)Cc6c(Cl)cc(Cl)cc65)cc4)cc3)cc2)C1 (centres unmarked) [Example 231, N1,N4-bis(2-(2-(2-(4-(6,8-dichloro-2-methyl-1,2,3,4-tetrahydroisoquinolin-4-yl)phenylsulfonamido)ethoxy)ethoxy)ethyl)terephthalamide] | < 3 | < 2.5 |  |  | <5.0 |

Further lines, with some results ahead:

| AUC [1] [ng·h/mL] | Cmax [1] [ng/mL] | IC50 [2, 3] [nM] | rat NHE-3 Average pIC50 [2, 3] | Compound | rat NHE-3 Average pIC50 [2] |
| --- | --- | --- | --- | --- | --- |
| < 5.3 | < 3.5 | 100 to 1000 |  | CN1Cc2c(Cl)cc(Cl)cc2[C@H](c2ccc(S(=O)(=O)NCCOCCOCCOCCNC(=O)C(O)C(O)C(=O)NCCOCCOCCOCCNS(=O)(=O)c3ccc([C@@H]4CN(C)Cc5c(Cl)cc(Cl)cc54)cc3)cc2)C1 (single isomer, unassigned) [Example 225, N1,N4-bis(2-(2-(2-(2-(4-((S or R)-6,8-dichloro-2-methyl-1,2,3,4-tetrahydroisoquinolin-4-yl)phenylsulfonamido)ethoxy)ethoxy)ethoxy)ethyl)-2,3-dihydroxysuccinamide] |  |
| < 2 | < 2 |  | >7 | CN1Cc2c(Cl)cc(Cl)cc2C(c2cccc(S(=O)(=O)NCCOCCOCCOCCNC(=O)c3cc(C(=O)NCCOCCOCCOCCNS(=O)(=O)c4cccc(C5CN(C)Cc6c(Cl)cc(Cl)cc65)c4)cc(C(=O)NCCOCCOCCOCCNS(=O)(=O)c4cccc(C5CN(C)Cc6c(Cl)cc(Cl)cc65)c4)c3)c2)C1 (centres unmarked) [Example 215, N1,N3,N5-tris(2-(2-(2-(2-(3-(6,8-dichloro-2-methyl-1,2,3,4-tetrahydroisoquinolin-4-yl)phenylsulfonamido)ethoxy)ethoxy)ethoxy)ethyl)benzene-1,3,5-tricarboxamide] |  |
| < 8.3 | < 4 | < 100 |  | CN1Cc2c(Cl)cc(Cl)cc2C(c2cccc(S(=O)(=O)NCCOCCOCCOCCNC(=O)c3ccc(C(=O)NCCOCCOCCOCCNS(=O)(=O)c4cccc(C5CN(C)Cc6c(Cl)cc(Cl)cc65)c4)cc3)c2)C1 (centres unmarked) [Example 216, N1,N4-bis(2-(2-(2-(2-(3-(6,8-dichloro-2-methyl-1,2,3,4-tetrahydroisoquinolin-4-yl)phenylsulfonamido)ethoxy)ethoxy)ethoxy)ethyl)terephthalamide] |  |
| < 10 | < 10 |  | 6 to 7 | CN1Cc2c(Cl)cc(Cl)cc2C(c2cccc(S(=O)(=O)NCCOCCOCCOCCOCCOCCOCCOCCOCCOCCOCCNC(=O)CCOCCOCCOCCOCCOCCOCCOCCOCCOCCC(=O)NCCOCCOCCOCCOCCOCCOCCOCCOCCOCCOCCNS(=O)(=O)c3cccc(C4CN(C)Cc5c(Cl)cc(Cl)cc54)c3)c2)C1 (centres unmarked) [Example 217, N1,N31-bis(32-(3-(6,8-dichloro-2-methyl-1,2,3,4-tetrahydroisoquinolin-4-yl)phenylsulfonamido)-3,6,9,12,15,18,21,24,27,30-decaoxadotriacontyl)-4,7,10,13,16,19,22,25,28-nonaoxahentriacontane-1,31-diamide] |  |
|  |  | 1000 to 10000 |  | CN1Cc2c(Cl)cc(Cl)cc2C(c2cccc(S(=O)(=O)NCCOCCOCCOCCNS(=O)(=O)c3cccc(S(=O)(=O)NCCOCCOCCOCCNS(=O)(=O)c4cccc(C5CN(C)Cc6c(Cl)cc(Cl)cc65)c4)c3)c2)C1 (centres unmarked) [Example 219, N1,N3-bis(2-(2-(2-(2-(3-(6,8-dichloro-2-methyl-1,2,3,4-tetrahydroisoquinolin-4-yl)phenylsulfonamido)ethoxy)ethoxy)ethoxy)ethyl)benzene-1,3-disulfonamide] |  |
| < 5 | < 5 |  | 6 to 7 | CN1Cc2c(Cl)cc(Cl)cc2C(c2cccc(S(=O)(=O)NCCOCCOCCOCCNC(=O)c3cccc(C(=O)NCCOCCOCCOCCNS(=O)(=O)c4cccc(C5CN(C)Cc6c(Cl)cc(Cl)cc65)c4)c3)c2)C1 (centres unmarked) [Example 228, N1,N3-bis(2-(2-(2-(2-(3-(6,8-dichloro-2-methyl-1,2,3,4-tetrahydroisoquinolin-4-yl)phenylsulfonamido)ethoxy)ethoxy)ethoxy)-ethyl)isophthalamide] |  |
